# Values joined by “and” are separate entries in the source; they are usually repeats but may differ in a detail not shown here. Equal entries are not always repeated. Where two headings read alike, the source gives them in different places.
# Assays:
# [1] = cited from earlier work
# [2] = 1H NMR-pH titration, protonation constants; assay type: physicochemical
# Description: The pH meter readings were recorded using a Metrohm pH meter, equipped with a Metrohm 6.0234.110 combined glass electrode. A four-point calibration using pH 2.00, pH 4.00, pH 7.00 and pH 11.00 standard buffer solutions were performed directly before pH adjustments. The pH measurements were performed in 25 mL vessels with proper stirring before transferring 600 μL sample solutions into the NMR tubes. Solutions were prepared in the pH range of 1.50–8.70 with 0.30 increments using 0.9 M, 0.5 M and 0.1 M sodium hydroxide and hydrochloric acid solutions in H2O:D2O = 9:1.
# For structural characterizations of CD derivatives in D2O, a 600 MHz Varian DDR NMR spectrometer equipped with a 5 mm inverse-detection gradient probe or a 400 MHz Varian Mercury Plus spectrometer equipped with a 5mm Varian 400 Automation Triple Resonance Broadband Pulsed Field Gradient probe was used. For NMR-pH titrations, the same instruments were used. The pH-dependent series of ^1H NMR spectra were recorded in a solvent mixture of H2O:D2O = 9:1 by volume, where the constant ionic strength and the buffer capacity were adjusted using 0.05 M sodium chloride and 0.05 M acetic acid-d4. An appropriate amount of CD was weighed to obtain a 1 mM solution and finally one drop of methanol was added as a chemical shift reference (3.310 ppm). The water resonance was diminished by the dpfgse pulse sequence or presaturation. All the spectra were processed using the MestReNova v9.0.1-13254 (Mestralab Research, S.L., Santiago de Compostela, Spain) software.
# The standard macroscopic evaluation of NMR-pH titration curves (Equation (3) in Section 2.2) was performed with the following software tools: Microcal Origin Pro 8 (OriginLab Corp., Northampton, MA, USA), HypNMR2018 [38], OPIUM [39] and home-written R scripts (R version 4.1.2, The R Foundation, Vienna, Austria) using the nls module. The equidistant macroscopic (Equation (8)) and Q-fitting (Equations (4) and (11)) models were fitted both by Origin and our R-scripts to verify their equivalent performance regarding statistical description of the parameter estimates. The microscopic cluster expansion model in Section 2.5 requires summation of >100 variables which is unfeasible in the form of an explicit model function required by commercial data-fitting software like Origin. The enumeration of microspecies was therefore accomplished in a custom-written R script. To assess the robustness of our data-fitting model as well as the error propagation of the optimized log k and pε parameters to the derived log K macroconstants, Monte Carlo simulations on >1000 replicates were performed in R.
# [3] = set-up: method as in PMID 18613172; settings: literature, cited from earlier work
# [4] = set-up: method as in doi:10.1021/jp0340820; settings: cited from earlier work
# [5] = Literature, ref Hawkins, Perrin, Inorg. Chem. 2 (1963) 843
# [6] = ED macro, Eq. (7) evaluation, calculated (*)
# [7] = Macroscopic, Eq. (2) evaluation
# [8] = Macroscopic, Eq. (2) evaluation, calculated (*)
# [9] = Microscopic, Eq. (3) evaluation, calculated (*)
# [10] = ED macro or Q-fitting evaluation, ? = physically unrealistic, SD in parentheses
# [11] = ED macro or Q-fitting evaluation, H2O:D2O = 9:1, 0.05 M NaCl, SD in parentheses
# [12] = converted from optimized microscopic basicity parameters (site-binding model)
# [13] = from ED macro or Q-fitting macroconstants by Eq. 18
# [14] = from ED macro or Q-fitting macroconstants by Eq. 18, ? = physically unrealistic
# [15] = site-binding (SB) microscopic evaluation
# [16] = site-binding (SB) microscopic evaluation, converted from log kA and pε, errors by Monte Carlo
compound,measurement,setting,value
"O=C(O)CCSSCCC(=O)O [DTDPA, 3,3′-dithiodipropionic acid, reference compound]",log K1,[1]; [5],4.47
same,log K2,[1]; [5],3.88
same,log kA,[1]; [5],4.16
same,pεAB,[1]; [5],-0.01
same,pε,"[1]; earlier literature, almost independent carboxylate protonations",≈ 0
same,log kA,[1]; literature value,4.16
same,log K1,"[2]; ED macro, Eq. (7) evaluation",4.631 (0.005)
same,log K2,"[2]; ED macro, Eq. (7) evaluation",3.883 (0.005)
same,log kA,[2]; [6],4.330 (0.005)
same,pεAB,[2]; [6],0.15 (0.01)
same,log K1,[2]; [7],4.62 (0.06)
same,log K2,[2]; [7],3.87 (0.07)
same,log kA,[2]; [8],4.32 (0.06)
same,pεAB,[2]; [8],0.15 (0.01)
same,log K1,[2]; [9],4.630 (0.005)
same,log K2,[2]; [9],3.88 (0.01)
"O=C(O)CCSC[C@H]1O[C@@H]2O[C@H]3[C@H](O)[C@@H](O)[C@@H](O[C@H]4[C@H](O)[C@@H](O)[C@@H](O[C@H]5[C@H](O)[C@@H](O)[C@@H](O[C@H]6[C@H](O)[C@@H](O)[C@@H](O[C@H]7[C@H](O)[C@@H](O)[C@@H](O[C@H]8[C@H](O)[C@@H](O)[C@@H](O[C@H]1[C@H](O)[C@H]2O)O[C@@H]8CSCCC(=O)O)O[C@@H]7CSCCC(=O)O)O[C@@H]6CSCCC(=O)O)O[C@@H]5CSCCC(=O)O)O[C@@H]4CSCCC(=O)O)O[C@@H]3CSCCC(=O)O [Suβ-CD, subetadex]",log K1,[3]; potentiometric,6.49 (1)
same,log K2,[3]; potentiometric,5.69 (1)
same,log K3,[3]; potentiometric,5.25 (1)
same,log K4,[3]; potentiometric,4.75 (1)
same,log K5,[3]; potentiometric,4.31 (1)
same,log K6,[3]; potentiometric,3.78 (1)
same,log K7,[3]; potentiometric,<3
same,log kA,[3],5.64
same,log K5,[2]; [10],4.54 (0.06)
same,log K7,[2]; [10],3.69 (0.03)
same,log K1,[2]; [11],6.60 (0.03)
same,log K2,[2]; [11],6.18 (0.04)
same,log K3,[2]; [11],5.27 (0.08)
same,"macroscopic pKa, 1st of the set",[2]; [12],3.82
same,"macroscopic pKa, 2nd of the set",[2]; [12],4.31
same,"macroscopic pKa, 3rd of the set",[2]; [12],4.73
same,"macroscopic pKa, 4th of the set",[2]; [12],5.18
same,"macroscopic pKa, 5th of the set",[2]; [12],5.64
same,"macroscopic pKa, 6th of the set",[2]; [12],6.06
same,"macroscopic pKa, 7th of the set",[2]; [12],6.54
same,log k¯1 (averaged microconstant),[2]; [13],5.75 (0.03)
same,log k¯2 (averaged microconstant),[2]; [13],5.71 (0.04)
same,log k¯3 (averaged microconstant),[2]; [13],5.04 (0.08)
same,log k¯5 (averaged microconstant),[2]; [14],4.76 (0.06)
same,log k¯7 (averaged microconstant),[2]; [14],4.53 (0.03)
same,log k¯1 (averaged microconstant),[2]; [15],5.70 (0.02)
same,log k¯2 (averaged microconstant),[2]; [15],5.58 (0.02)
same,log k¯3 (averaged microconstant),[2]; [15],5.42 (0.02)
same,log k¯4 (averaged microconstant),[2]; [15],5.18 (0.01)
same,log k¯5 (averaged microconstant),[2]; [15],4.95 (0.02)
same,log k¯6 (averaged microconstant),[2]; [15],4.78 (0.02)
same,log k¯7 (averaged microconstant),[2]; [15],4.67 (0.02)
same,log K1,[2]; [16],6.54 (0.02)
same,log K2,[2]; [16],6.06 (0.02)
same,log K3,[2]; [16],5.64 (0.02)
same,log K4,[2]; [16],5.18 (0.01)
same,log K5,[2]; [16],4.73 (0.02)
same,log K6,[2]; [16],4.31 (0.02)
same,log K7,[2]; [16],3.82 (0.02)
same,pε12 = averaged interactivity parameter pε¯,[2]; site-binding model with a single interactivity parameter,0.5144
same,log kA (carboxylate core microconstant),[2]; site-binding model with a single interactivity parameter pε12 (pε¯),5.697 and 5.70
same,log k,[2]; site-binding model without any pair-interactivity parameters (unsatisfactory fit),5.17
"O=C(O)CCSC[C@H]1O[C@@H]2O[C@H]3[C@H](O)[C@@H](O)[C@@H](O[C@H]4[C@H](O)[C@@H](O)[C@@H](O[C@H]5[C@H](O)[C@@H](O)[C@@H](O[C@H]6[C@H](O)[C@@H](O)[C@@H](O[C@H]7[C@H](O)[C@@H](O)[C@@H](O[C@H]8[C@H](O)[C@@H](O)[C@@H](O[C@H]9[C@H](O)[C@@H](O)[C@@H](O[C@H]1[C@H](O)[C@H]2O)O[C@@H]9CO)O[C@@H]8CO)O[C@@H]7CO)O[C@@H]6CO)O[C@@H]5CO)O[C@@H]4CO)O[C@@H]3CO [mono-Suγ-CD, mono-sugammadex]",log K,"[2]; standard macroscopic evaluation, Equation (3), n = 1",4.35 (0.01)
oxidized glutathione,pε (carboxylate interactions),[4],≈ 0.1
